For one compound, Kd results are on record in publication PMC12066708 (Communications Biology, 2025).

SMILES strings stand for the structures.

The assay concerns the target T1, Kell (Homo sapiens, UniProt P23276).
T1 sequence (P23276 1-732): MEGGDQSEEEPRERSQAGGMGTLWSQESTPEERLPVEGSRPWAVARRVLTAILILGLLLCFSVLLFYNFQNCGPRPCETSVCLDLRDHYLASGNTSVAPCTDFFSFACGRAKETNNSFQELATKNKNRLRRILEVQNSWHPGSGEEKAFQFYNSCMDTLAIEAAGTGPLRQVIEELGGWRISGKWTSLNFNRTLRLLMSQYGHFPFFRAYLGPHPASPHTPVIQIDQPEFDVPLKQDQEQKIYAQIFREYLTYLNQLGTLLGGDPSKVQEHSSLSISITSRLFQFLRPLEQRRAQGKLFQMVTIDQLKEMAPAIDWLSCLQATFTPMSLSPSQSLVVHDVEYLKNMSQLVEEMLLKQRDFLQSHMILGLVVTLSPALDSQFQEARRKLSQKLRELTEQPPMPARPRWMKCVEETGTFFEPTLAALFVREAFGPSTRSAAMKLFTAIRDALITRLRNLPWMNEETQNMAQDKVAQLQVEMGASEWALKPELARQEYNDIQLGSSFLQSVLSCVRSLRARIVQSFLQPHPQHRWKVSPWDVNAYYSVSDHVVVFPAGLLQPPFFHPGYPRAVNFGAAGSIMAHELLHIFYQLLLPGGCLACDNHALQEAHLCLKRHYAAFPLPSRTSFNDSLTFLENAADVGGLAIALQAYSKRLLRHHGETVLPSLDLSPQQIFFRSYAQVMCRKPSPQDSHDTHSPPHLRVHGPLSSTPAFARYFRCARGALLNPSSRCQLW
Kind of assay: microscale thermophoresis. Type of assay: binding.

Compound `O=C(O)CNC(=O)C(CS)Cc1ccccc1` (stereo not shown) [thiorphan] had a Kd of 33 µM.

As a reminder, the Kd is the concentration at which binding is half-saturated.
